Data on 28 compounds can be found in ChEMBL document CHEMBL1165944, “Synthesis and biological evaluation of a new series of berberine derivatives as dual inhibitors of acetylcholinesterase and butyrylcholinesterase” (Bioorg Med Chem, 2010).

For one assay, the target named is Acetylcholinesterase (Electrophorus electricus, UniProt O42275). The experiment in a line: Inhibition of electric eel AChE by Ellman's assay. (DTNB colorimetry detects thiols as they appear.)
Another assay concerns the target Cholinesterase (Equus caballus, UniProt P81908). The experiment in a line: Inhibition of equine serum BuChE by Ellman's method.

The structures appear in SMILES notation.

Broadly, the IC50 is the concentration at which inhibition is half-maximal. A lower IC50 goes with greater potency in that assay.

Chain of Acetylcholinesterase (O42275 whole entry): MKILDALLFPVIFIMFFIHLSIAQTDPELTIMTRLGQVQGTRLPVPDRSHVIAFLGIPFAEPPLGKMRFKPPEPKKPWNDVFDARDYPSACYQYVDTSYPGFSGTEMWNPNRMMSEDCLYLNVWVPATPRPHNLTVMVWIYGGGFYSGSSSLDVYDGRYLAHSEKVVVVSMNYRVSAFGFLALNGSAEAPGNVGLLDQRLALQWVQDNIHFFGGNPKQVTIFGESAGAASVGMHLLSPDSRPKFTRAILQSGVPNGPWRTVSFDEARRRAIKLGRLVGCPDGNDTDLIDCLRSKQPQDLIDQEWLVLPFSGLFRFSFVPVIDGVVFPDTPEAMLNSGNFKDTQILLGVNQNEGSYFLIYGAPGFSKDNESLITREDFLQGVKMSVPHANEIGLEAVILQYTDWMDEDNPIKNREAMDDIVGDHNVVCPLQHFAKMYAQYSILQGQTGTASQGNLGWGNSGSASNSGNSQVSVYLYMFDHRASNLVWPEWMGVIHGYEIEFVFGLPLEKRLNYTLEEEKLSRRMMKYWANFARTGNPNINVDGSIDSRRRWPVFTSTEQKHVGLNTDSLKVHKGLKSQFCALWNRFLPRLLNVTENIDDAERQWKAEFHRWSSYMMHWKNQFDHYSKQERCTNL
Chain of Cholinesterase (P81908 whole entry): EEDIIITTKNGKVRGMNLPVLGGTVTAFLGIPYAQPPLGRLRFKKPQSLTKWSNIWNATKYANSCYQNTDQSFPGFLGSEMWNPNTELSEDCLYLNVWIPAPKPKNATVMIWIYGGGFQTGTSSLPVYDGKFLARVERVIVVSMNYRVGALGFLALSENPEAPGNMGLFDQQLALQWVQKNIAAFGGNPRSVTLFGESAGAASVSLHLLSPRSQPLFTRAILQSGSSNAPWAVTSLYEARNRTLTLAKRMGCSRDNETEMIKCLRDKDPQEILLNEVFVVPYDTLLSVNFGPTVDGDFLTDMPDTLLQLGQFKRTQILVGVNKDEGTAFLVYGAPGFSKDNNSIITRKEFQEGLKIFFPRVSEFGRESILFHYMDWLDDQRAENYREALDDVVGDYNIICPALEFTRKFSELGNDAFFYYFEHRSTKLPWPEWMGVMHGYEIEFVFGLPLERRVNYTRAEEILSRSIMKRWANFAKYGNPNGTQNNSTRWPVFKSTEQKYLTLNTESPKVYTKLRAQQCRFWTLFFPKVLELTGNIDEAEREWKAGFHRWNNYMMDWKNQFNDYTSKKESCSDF

At Acetylcholinesterase, `COc1ccc2cc3[n+](cc2c1OCCCOc1c(OC)ccc2cc4[n+](cc12)CCc1cc2c(cc1-4)OCO2)CCc1cc2c(cc1-3)OCO2` registered an IC50 of 226 nM. The same measure, in the same setting: the figure for `COc1ccc2cc3[n+](cc2c1OCCOc1c(OC)ccc2cc4[n+](cc12)CCc1cc2c(cc1-4)OCO2)CCc1cc2c(cc1-3)OCO2` is 320 nM; for `COc1ccc2cc3[n+](cc2c1OCCCCOc1ccc(Cl)cc1)CCc1cc2c(cc1-3)OCO2` it is 1500 nM. The same measure, in the same setting: the figure for `COc1ccc2cc3[n+](cc2c1OCCCOc1ccc(Br)cc1)CCc1cc2c(cc1-3)OCO2` is 265 nM; for `COc1ccc2cc3[n+](cc2c1OCCCCOc1ccccn1)CCc1cc2c(cc1-3)OCO2` it is 340 nM; for `COc1ccc2cc3[n+](cc2c1OCCCN(C)c1ccccc1)CCc1cc2c(cc1-3)OCO2` it is 156 nM. The same measure, in the same setting: the figure for `COc1ccc2cc3[n+](cc2c1OCCCOc1ccc2ccccc2c1)CCc1cc2c(cc1-3)OCO2` is 359 nM; for `COc1ccc2cc3[n+](cc2c1OCCCSc1ccc2ccccc2c1)CCc1cc2c(cc1-3)OCO2` it is 500 nM; for `COc1ccc2cc3[n+](cc2c1OCCCCOc1ccc(Br)cc1)CCc1cc2c(cc1-3)OCO2` it is 743 nM. As to `COc1ccc2cc3[n+](cc2c1OCCCCSc1ccc2ccccc2c1)CCc1cc2c(cc1-3)OCO2`, on Acetylcholinesterase, the IC50 worked out at 1350 nM. Take `COc1ccc2cc3[n+](cc2c1OCCCOc1ccc([N+](=O)[O-])cc1)CCc1cc2c(cc1-3)OCO2`: it took 400 nM to reach half-maximal inhibition against Acetylcholinesterase (IC50). Same read-out and setting: the figure for `COc1ccc2cc3[n+](cc2c1OCCC(=O)Nc1ccccc1)CCc1cc2c(cc1-3)OCO2` is 535 nM; for `COc1ccc2cc3[n+](cc2c1OCCC(=O)Nc1ccc(C)cc1)CCc1cc2c(cc1-3)OCO2` it is 1460 nM. For the compound `COc1ccc2cc3[n+](cc2c1OCCC(=O)Nc1ccc([N+](=O)[O-])cc1)CCc1cc2c(cc1-3)OCO2`, the IC50 against Acetylcholinesterase was found to be 6500 nM; against Cholinesterase it was 5530 nM. `COc1ccc2cc3[n+](cc2c1OCCCOc1ccc(Cl)cc1)CCc1cc2c(cc1-3)OCO2` gave an IC50 on Acetylcholinesterase of 715 nM. Same read-out and setting: the figure for `COc1ccc2cc3[n+](cc2c1OCCCNc1ccccc1)CCc1cc2c(cc1-3)OCO2` is 138 nM. The same measure, in the same setting: the figure for `COc1ccc2cc3[n+](cc2c1OCC[n+]1ccccc1)CCc1cc2c(cc1-3)OCO2` is 196 nM; for `COc1ccc2cc3[n+](cc2c1OCCC[n+]1ccccc1)CCc1cc2c(cc1-3)OCO2` it is 359 nM. Same read-out and setting: the figure for `COc1ccc2cc3[n+](cc2c1OCCCCOc1ccc2ccccc2c1)CCc1cc2c(cc1-3)OCO2` is 1900 nM; for `COc1ccc2cc3[n+](cc2c1OCCC(=O)Nc1ccc(Cl)cc1)CCc1cc2c(cc1-3)OCO2` it is 3860 nM; for `COc1ccc2cc3[n+](cc2c1OCC[n+]1cccc(C)c1)CCc1cc2c(cc1-3)OCO2` it is 48 nM.

For `COc1ccc2cc3[n+](cc2c1OCCC[n+]1cccc(C)c1)CCc1cc2c(cc1-3)OCO2`, at Acetylcholinesterase, the IC50 was 152 nM. Still for that read-out and setting: the figure for `COc1ccc(NC(=O)CCOc2c(OC)ccc3cc4[n+](cc23)CCc2cc3c(cc2-4)OCO3)cc1` is 2800 nM; for `COc1ccc2cc3[n+](cc2c1OCCCOc1ccc(C)cc1)CCc1cc2c(cc1-3)OCO2` it is 878 nM; for `COc1ccc(OCCCOc2c(OC)ccc3cc4[n+](cc23)CCc2cc3c(cc2-4)OCO3)cc1` it is 1000 nM. In the case of `COc1ccc2cc3[n+](cc2c1OCCCCOc1c(OC)ccc2cc4[n+](cc12)CCc1cc2c(cc1-4)OCO2)CCc1cc2c(cc1-3)OCO2`, the midpoint of inhibition on Acetylcholinesterase, the IC50, lay at 176 nM.

On Acetylcholinesterase, `COc1ccc(OCCCCOc2c(OC)ccc3cc4[n+](cc23)CCc2cc3c(cc2-4)OCO3)cc1` showed an IC50 of 748 nM. On to `COc1ccc2cc3[n+](cc2c1OCCCCOc1ccc([N+](=O)[O-])cc1)CCc1cc2c(cc1-3)OCO2`, for which, on Acetylcholinesterase, half-maximal inhibition (IC50) was put at 490 nM.
